The results in this text go back to patent US20230381321A1, “CAMPTOTHECIN CONJUGATES” (priority 2022, published 2023).

Each structure is given as a SMILES string. Where two headings read alike, the source gives them in different places.

What all share (type): cell-based
Test [1] relates to renal carcinoma cells (786-O). Description: In vitro potency (CellTiter-Glo, 96 h) on 786-O. The note with it: Homo sapiens, 786-0, 96 h, read-out: 786-O IC50. As for the experimental part: (§1) In vitro potency was assessed on multiple cancer cell lines. All cell lines were authenticated by STR profiling at IDEXX Bioresearch and cultured for no more than 2 months after resuscitation. Cells cultured in log-phase growth were seeded for 24 hours in 96-well plates containing […] RPMI 1640 supplemented with 20% FBS. Serial dilutions of antibody-drug conjugates in cell culture media were prepared at 4x working concentrations, and 50 μL of each dilution was added to the 96-well plates. Following addition of test articles, cells were incubated with test articles for 4 days at […]. After 96 hours, growth inhibition was assessed by CellTiterGlo® (Promega, Madison, WI) and luminescence was measured on a plate reader.
(§2) Cell viability was determined by CellTiter-Glo staining after 96h exposure to ADC. ND=Not Determined. In the following tables, “Ex_” refers to a drug linker number. For example, “Ag4-Ex_4a” refers to a conjugate of an Ag4 antibody with drug linker 4a.
In general terms: ATP-based viability assays read luminescence as a measure of living cells.

For test [2], the system named is pancreatic cancer cells (BxPC3). Description: In vitro potency (CellTiter-Glo, 96 h) on BxPC3. The settings on record: Homo sapiens, BXPC-3, 96 h, read-out: BxPC3 IC50. The method, then: as §1, §2
Test [3] relates to anaplastic large cell lymphoma cells (DEL). Nature of the test: In vitro potency (CellTiter-Glo, 96 h) on DEL. The note with it: 96 h, read-out: DEL IC50. The method, then:
as §1, §2

For test [4], the system named is anaplastic large cell lymphoma cells (DELBVR). Nature of the test: In vitro potency (CellTiter-Glo, 96 h) on DELBVR. The settings on record: 96 h, read-out: DELBVR IC50. The method, then:
as §1, §2

Test [5] relates to anaplastic large cell lymphoma cells (Karpas299). Nature of the test: In vitro potency (CellTiter-Glo, 96 h) on Karpas299. The settings on record: Homo sapiens, KARPAS-299, 96 h, read-out: Karpas299 IC50. The method, then:
as §1, §2

For test [6], the system named is Hodgkin's lymphoma cells (L540cy). Description: In vitro potency (CellTiter-Glo, 96 h) on L540cy. The settings on record: L540cy, 96 h, read-out: L540cy IC50. As for the experimental part:
as §1, §2

A short description of test [7]: In vitro potency (CellTiter-Glo, 96 h) on Ls174T. The settings on record: Homo sapiens, LS174T, read-out: Ls174T IC50. The method, then: as §1, §2
Test [8] relates to breast cancer cells (MDA-MB-231). Description: In vitro potency (CellTiter-Glo, 96 h) on MDA-MB-231. The settings on record: Homo sapiens, MDA-MB-231, 96 h, read-out: MDAMB 231 IC50. As for the experimental part: as §1, §2
In test [9] the test system is acute myeloid leukemia cells (MOLM-13). Description: In vitro potency (CellTiter-Glo, 96 h) on MOLM-13. The note with it: Homo sapiens, MOLM-13, 96 h, read-out: MOLM-13 IC50. As for the experimental part: as §1, §2
Test [10] deals with B-lymphocyte cancer cells (SU-DHL4). Description: In vitro potency (CellTiter-Glo, 96 h) on SU-DHL4. The settings on record: Homo sapiens, SU-DHL-4, 96 h, read-out: SU-DHL-4 IC50. The method, then: as §1, §2
Setting [11] is: CPT free drugs, CellTiter-Glo after 96 h exposure.

Usually IC50 stands for the midpoint of a concentration-inhibition curve. Take `CC[C@@]1(O)C(=O)OCc2c1cc1n(c2=O)Cc2c-1nc1cc(F)c(OC)c(Br)c1c2CN` [Compound 2ad]: the half-maximal inhibitory concentration (IC50) in [1] (setting [11]) was 9 nM; in test [2] (setting [11]), 22 nM; in test [3] (setting [11]), 1 nM; in [4] (setting [11]) it was 1 nM; in test [5] (setting [11]) it was 7 nM; in test [6] (setting [11]), 4 nM. Besides, the IC50 in test [7] (setting [11]) turned out to be 17 nM; in test [8] (setting [11]), 15 nM; in test [9] (setting [11]), 5 nM; in test [10] (setting [11]) it was 4 nM.
`CC[C@@]1(O)C(=O)OCc2c1cc1n(c2=O)Cc2c-1nc1cc3c(cc1c2CNCCCN1CCNCC1)OCO3` [Compound 8d]: the IC50 was 15 nM in test [1]; 14 nM in [2]; 2 nM in [3]; 2 nM in test [4]; 9 nM in test [5]; 6 nM in test [6]. Also, the IC50 is 19 nM in test [7] (96 h), 25 nM in test [8], 37 nM in test [9] and 6 nM in test [10].
Regarding `CC[C@@]1(O)C(=O)OCc2c1cc1n(c2=O)Cc2c-1nc1cc3c(cc1c2CNCCCNC)OCO3` [Compound 8a], the IC50 worked out at 11 nM in test [1]; 15 nM in [2]; 1 nM in test [3]; 2 nM in test [4]; 8 nM in test [5]; 5 nM in [6]. Further, the IC50 in [7] (96 h) was 48 nM; in test [8], 22 nM; in test [9] it was 3 nM; in test [10] it was 4 nM.
For `C=C(C)c1c(C)c(F)cc2nc3c(c(CN)c12)Cn1c-3cc2c(c1=O)COC(=O)[C@]2(O)CC` [Compound 2al], the IC50 in test [1] turned out to be 4 nM; in [2], 7 nM; in test [3], 1 nM; in [4], 1 nM; in test [5], 4 nM; in test [6], 2 nM. Also, the IC50 in test [7] (96 h) was found to be 11 nM; in test [8], 9 nM; in test [9] it was 2 nM; in test [10] it was 1 nM.
As to `CC[C@@]1(O)C(=O)OCc2c1cc1n(c2=O)Cc2c-1nc1cc(F)c(F)c(F)c1c2CN` [Compound 2ap], the IC50 in test [1] (setting [11]) worked out at 8 nM; in [2] (setting [11]) it was 14 nM; in [3] (setting [11]) it was 1 nM; in test [4] (setting [11]) it was 1 nM; in test [5] (setting [11]) it was 5 nM; in test [6] (setting [11]), 2 nM. The IC50 in test [7] (setting [11]) was 4 nM; in test [8] (setting [11]), 13 nM; in [9] (setting [11]), 5 nM; in test [10] (setting [11]) it was 2 nM.
As for `CC[C@@]1(O)C(=O)OCc2c1cc1n(c2=O)Cc2c-1nc1cc3c(cc1c2CNC[C@@H](O)CN1CCCCC1)OCO3` [Compound 7z], the IC50 in test [1] was found to be 123 nM; in test [2] it was 127 nM; in [3] it was 17 nM; in [4] it was 16 nM; in [5] it was 150 nM; in test [6] it was 48 nM. Also, the IC50 in [7] (96 h) was found to be 79 nM; in test [8], 306 nM; in test [9], 143 nM; in test [10], 39 nM.
As for `CC[C@@]1(O)C(=O)OCc2c1cc1n(c2=O)Cc2c-1nc1cc3c(cc1c2CN)COC3` [Compound 2ak], in test [9], the IC50 amounted to 129 nM.
Take `CC[C@@]1(O)C(=O)OCc2c1cc1n(c2=O)Cc2c-1nc1cc3c(cc1c2CNC(C)=O)OCO3` [Compound 12b]: the IC50 turned out to be 12 nM in [1]; 11 nM in [2]; 1 nM in test [4]; 8 nM in [5]; 4 nM in [6]; 22 nM in [7] (96 h). The results for the IC50 in [8], in test [9] and in test [10] were 28 nM, 3 nM and 1 nM, respectively.
